Measured values reported in PubChem BioAssay (NCI).
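At the GI50, growth is halved. TGI denotes the concentration required for complete inhibition of growth.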

Columns and labels:
Test in all cases: growth of human tumour cells (NCI), 384-well format
DU-145 prostate = tested on: DU-145 prostate
T-47D breast = tested on: T-47D breast
SNB-75 CNS = tested on: SNB-75 CNS
MDA-MB-231 breast = tested on: MDA-MB-231 breast
HL-60(TB) leukemia = tested on: HL-60(TB) leukemia
HS 578T breast = tested on: HS 578T breast
SNB-19 CNS = tested on: SNB-19 CNS
EKVX NSCLC = tested on: EKVX NSCLC
CCRF-CEM leukemia = tested on: CCRF-CEM leukemia
K-562 leukemia = tested on: K-562 leukemia
SF-268 CNS = tested on: SF-268 CNS
HCC-2998 colon = tested on: HCC-2998 colon
SF-539 CNS = tested on: SF-539 CNS
OVCAR-8 ovarian = tested on: OVCAR-8 ovarian
MALME-3M melanoma = tested on: MALME-3M melanoma
SR leukemia = tested on: SR leukemia
CAKI-1 renal = tested on: CAKI-1 renal
NCI-H522 lung = tested on: NCI-H522 lung
UACC-257 melanoma = tested on: UACC-257 melanoma
HOP-62 NSCLC = tested on: HOP-62 NSCLC
MOLT-4 leukemia = tested on: MOLT-4 leukemia
NCI/ADR-RES ovarian = tested on: NCI/ADR-RES ovarian
SN12C renal = tested on: SN12C renal
SK-OV-3 ovarian = tested on: SK-OV-3 ovarian
SK-MEL-28 melanoma = tested on: SK-MEL-28 melanoma
UO-31 renal = tested on: UO-31 renal
786-0 renal = tested on: 786-0 renal
NCI-H226 lung = tested on: NCI-H226 lung
A549 NSCLC = tested on: A549 NSCLC
RPMI-8226 leukemia = tested on: RPMI-8226 leukemia
BT-549 breast = tested on: BT-549 breast
NCI-H322M lung = tested on: NCI-H322M lung
COLO 205 colon = tested on: COLO 205 colon
TK-10 renal = tested on: TK-10 renal
A498 renal = tested on: A498 renal
RXF 393 renal = tested on: RXF 393 renal
SW-620 colon = tested on: SW-620 colon
NCI-H460 NSCLC = tested on: NCI-H460 NSCLC
OVCAR-3 ovarian = tested on: OVCAR-3 ovarian
SF-295 CNS = tested on: SF-295 CNS
HCT-15 colon = tested on: HCT-15 colon
NCI-H23 lung = tested on: NCI-H23 lung
ACHN renal = tested on: ACHN renal
U251 glioblastoma = tested on: U251 glioblastoma
MCF7 breast = tested on: MCF7 breast
MDA-MB-468 breast = tested on: MDA-MB-468 breast
UACC-62 melanoma = tested on: UACC-62 melanoma
LOX IMVI melanoma = tested on: LOX IMVI melanoma
SK-MEL-5 melanoma = tested on: SK-MEL-5 melanoma
HOP-92 NSCLC = tested on: HOP-92 NSCLC
KM12 colon = tested on: KM12 colon
OVCAR-5 ovarian = tested on: OVCAR-5 ovarian
PC-3 prostate = tested on: PC-3 prostate
M14 melanoma = tested on: M14 melanoma
MDA-MB-435 melanoma = tested on: MDA-MB-435 melanoma
IGROV1 ovarian = tested on: IGROV1 ovarian
OVCAR-4 ovarian = tested on: OVCAR-4 ovarian
HT29 colon = tested on: HT29 colon

## Cc1c(CN2CCN(C(=O)[C@H](C)O)CC2)sc2c(N3CCOCC3)nc(-c3cnc(N)nc3)nc12
DU-145 prostate
  GI50: 272 nM
  TGI: 4100 nM
T-47D breast
  GI50: 25.9 nM
  TGI: 110 nM
SNB-75 CNS
  GI50: 143 nM
  TGI: 775 nM
MDA-MB-231 breast
  GI50: 290 nM
  TGI: > 100000 nM
HL-60(TB) leukemia
  GI50: 121 nM
  TGI: 577 nM
HS 578T breast
  GI50: 139 nM
  TGI: 419 nM
SNB-19 CNS
  GI50: 2490 nM
  TGI: > 100000 nM
EKVX NSCLC
  GI50: 173 nM
  TGI: 1010 nM
CCRF-CEM leukemia
  GI50: 361 nM
  TGI: 1920 nM
K-562 leukemia
  GI50: 943 nM
  TGI: > 100000 nM
SF-268 CNS
  GI50: 386 nM
  TGI: 16600 nM
HCC-2998 colon
  GI50: 404 nM
  TGI: 14700 nM
SF-539 CNS
  GI50: 300 nM
  TGI: 3070 nM
OVCAR-8 ovarian
  GI50: 333 nM
  TGI: > 100000 nM
MALME-3M melanoma
  GI50: 51 nM
  TGI: 286 nM
SR leukemia
  GI50: 176 nM
  TGI: 609 nM
CAKI-1 renal
  GI50: 197 nM
  TGI: 2820 nM
NCI-H522 lung
  GI50: 208 nM
  TGI: 974 nM
UACC-257 melanoma
  GI50: 185 nM
  TGI: 884 nM
HOP-62 NSCLC
  GI50: 292 nM
  TGI: 2920 nM
MOLT-4 leukemia
  GI50: 97.5 nM
  TGI: 282 nM
NCI/ADR-RES ovarian
  GI50: 651 nM
  TGI: > 100000 nM
SN12C renal
  GI50: 148 nM
  TGI: 694 nM
SK-OV-3 ovarian
  GI50: 133 nM
  TGI: 448 nM
SK-MEL-28 melanoma
  GI50: 154 nM
  TGI: 719 nM
UO-31 renal
  GI50: 295 nM
  TGI: > 100000 nM
786-0 renal
  GI50: 350 nM
  TGI: 2860 nM
NCI-H226 lung
  GI50: 158 nM
  TGI: 784 nM
A549 NSCLC
  GI50: 261 nM
  TGI: 2600 nM
RPMI-8226 leukemia
  GI50: 54.4 nM
  TGI: 200 nM
BT-549 breast
  GI50: 197 nM
  TGI: 922 nM
NCI-H322M lung
  GI50: 244 nM
  TGI: 6600 nM
COLO 205 colon
  GI50: 208 nM
  TGI: 1370 nM
TK-10 renal
  GI50: 223 nM
  TGI: 1380 nM
A498 renal
  GI50: 88.2 nM
  TGI: 473 nM
RXF 393 renal
  GI50: 352 nM
  TGI: 2330 nM
SW-620 colon
  GI50: 594 nM
  TGI: > 100000 nM
NCI-H460 NSCLC
  GI50: 78.6 nM
  TGI: > 100000 nM
OVCAR-3 ovarian
  GI50: 211 nM
  TGI: 1740 nM
SF-295 CNS
  GI50: 148 nM
  TGI: 695 nM
HCT-15 colon
  GI50: 198 nM
  TGI: > 100000 nM
NCI-H23 lung
  GI50: 179 nM
  TGI: 5800 nM
ACHN renal
  GI50: 193 nM
  TGI: 1150 nM
U251 glioblastoma
  GI50: 1060 nM
  TGI: > 100000 nM
MCF7 breast
  GI50: 48.5 nM
  TGI: > 100000 nM
MDA-MB-468 breast
  GI50: 97.6 nM
  TGI: 352 nM
UACC-62 melanoma
  GI50: 211 nM
  TGI: 1200 nM
LOX IMVI melanoma
  GI50: 239 nM
  TGI: 1130 nM
SK-MEL-5 melanoma
  GI50: 119 nM
  TGI: 386 nM
HOP-92 NSCLC
  GI50: 84.9 nM
  TGI: 446 nM
KM12 colon
  GI50: 354 nM
  TGI: 6970 nM
OVCAR-5 ovarian
  GI50: 137 nM
  TGI: 823 nM
PC-3 prostate
  GI50: 149 nM
  TGI: 2430 nM
M14 melanoma
  GI50: 228 nM
  TGI: 3710 nM
MDA-MB-435 melanoma
  GI50: 230 nM
  TGI: 1530 nM
IGROV1 ovarian
  GI50: 41.6 nM
  TGI: 192 nM
OVCAR-4 ovarian
  GI50: 128 nM
  TGI: 726 nM
HT29 colon
  GI50: 246 nM
  TGI: > 100000 nM
